Data: patent publication US20150225369A1, “DDR2 INHIBITORS FOR THE TREATMENT OF OSTEOARTHRITIS” (Merck Patent GmbH, priority 2012, published 2015)

Biological target: T1, HEK293 transfected with human DDR2 (Homo sapiens, UniProt Q16832)
T1 construct: expressed in transfected cells; host or cells: HEK293 (PLT460F_(DDR2)-P7-1)
T1 sequence (Q16832 22-855): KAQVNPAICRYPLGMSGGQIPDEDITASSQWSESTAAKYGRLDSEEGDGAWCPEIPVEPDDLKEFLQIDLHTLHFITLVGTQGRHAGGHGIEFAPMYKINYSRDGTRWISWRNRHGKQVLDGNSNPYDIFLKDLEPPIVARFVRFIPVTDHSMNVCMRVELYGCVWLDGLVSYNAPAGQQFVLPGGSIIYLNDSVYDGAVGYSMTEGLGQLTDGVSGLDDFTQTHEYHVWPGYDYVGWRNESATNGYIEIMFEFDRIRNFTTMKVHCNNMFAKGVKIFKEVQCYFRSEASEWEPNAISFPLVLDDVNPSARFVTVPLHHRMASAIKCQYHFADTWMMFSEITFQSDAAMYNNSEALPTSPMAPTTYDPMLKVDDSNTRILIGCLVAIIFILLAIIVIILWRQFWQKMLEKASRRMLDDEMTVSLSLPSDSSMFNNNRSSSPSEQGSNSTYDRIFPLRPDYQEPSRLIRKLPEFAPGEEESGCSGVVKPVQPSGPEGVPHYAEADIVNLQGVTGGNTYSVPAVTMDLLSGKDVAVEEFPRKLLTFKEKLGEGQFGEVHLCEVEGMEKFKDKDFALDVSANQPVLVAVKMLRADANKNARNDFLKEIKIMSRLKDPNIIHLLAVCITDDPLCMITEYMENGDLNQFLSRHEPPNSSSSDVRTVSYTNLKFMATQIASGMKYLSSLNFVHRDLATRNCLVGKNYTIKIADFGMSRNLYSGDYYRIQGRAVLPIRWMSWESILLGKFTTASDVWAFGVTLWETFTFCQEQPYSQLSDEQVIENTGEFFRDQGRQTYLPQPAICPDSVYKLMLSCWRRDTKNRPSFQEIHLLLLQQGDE
Assay: Phospho-DDR2 cellular assay (collagen II induced DDR2 phosphorylation, ELISA)
Type: cell-based
Settings: cellular phospho-DDR2; read-out: IC50 [p-DDR2]
Description: Assays were performed in a 384 well plate format, using cell line HEK293 transfected with human DDR2 (PLT460F_(DDR2)-P7-1)
Cells were seeded at a density of 10'000 cells/well in 384well poly-D-lysine coated Black/clear plate (Cellcoat Greiner) and incubated in DMEM medium in the presence of 10% fetal bovine serum at 37° C., 5% CO2 for 48 h. Medium was replaced by serum-free medium and cells were incubated at 37° C., 5% CO2 for 8 h. Compound to be tested in 5% DMSO or 5% DMSO and 50 μg/ml of chicken collagen II were added and cells were incubated at 37° C., 5% CO2 for 16 h
Cells were rinsed with ice-cold PBS, lysed with lysis buffer (M-PER Thermo #78501) for 30 min at room temperature and centrifuged for 1 min at 1000 RPM. In parallel, White High binding 384 well plates (Corning) were coated with mouse anti-human DDR2 capture antibody (R&D Systems kit DuoSet IC Human phospho-DDR2 ELISA), overnight at RT.
An aliquot of cell lysate was transferred to the coated plates and incubated for 2 h at RT. Plates were washed and mouse anti-phospho-tyrosine detection antibody (R&D Systems kit DuoSet IC Human phospho-DDR2 ELISA) conjugated to horse radish peroxidase (HRP) was added for 2 h at RT. Plates were washed and chemiluminescent substrate for HRP (Thermo) was added for 15 min at RT. Luminescence was measured on a luminometer.

Row | Structure (SMILES) | IC50
1 | CNC(=O)c1cc(Oc2ccc(CNC(=O)Nc3cc(C(F)(F)F)ccc3N3CCNCC3)cc2C)ccn1 [compound 184, 4-{2-Methyl-4-[3-(2-piperazin-1-yl-5-trifluoromethyl-phenyl)-ureidomethyl]-phenoxy}-pyridine-2-carboxylic acid methylamide] | 76 nM
2 | CNC(=O)c1cc(Oc2ccc(C(C)NC(=O)Nc3ccc(C)c(Cl)c3)cc2)ccn1 (stereo not drawn) [compound 73, 4-(4-{1-[3-(3-Chloro-4-methyl-phenyl)-ureido]-ethyl}-phenoxy)-pyridine-2-carboxylic acid methylamide] | 1750 nM
3 | CNC(=O)c1cc(Oc2ccc(C(C)NC(=O)Nc3cc(Cl)c(Cl)cc3Cl)cc2)ccn1 (stereo not drawn) [compound 70, 4-(4-{1-[3-(2,4,5-Trichloro-phenyl)-ureido]-ethyl}-phenoxy)-pyridine-2-carboxylic acid methylamide] | 735 nM
4 | CNC(=O)c1cc(Oc2ccc(CNC(=O)Nc3ccc4nsnc4c3)cc2)ccn1 [compound 76, 4-{4-[(3-Benzo[1,2,5]thiadiazol-5-yl-ureido)-methyl]-phenoxy}-pyridine-2-carboxylic acid methylamide] | 670 nM
5 | CNC(=O)c1cc(Oc2ccc(CNC(=O)Nc3ccc(OC)c(Cl)c3)cc2)ccn1 [compound 39, 4-{4-[3-(3-Chloro-4-methoxy-phenyl)-ureidomethyl]-phenoxy}-pyridine-2-carboxylic acid methylamide] | 64 nM
6 | CNCCNC(=O)c1cc(Oc2ccc(CNC(=O)Nc3ccc(Cl)c(C(F)(F)F)c3)cc2)ccn1 [compound 149, 4-{4-[3-(4-Chloro-3-trifluoromethyl-phenyl)-ureidomethyl]-phenoxy}-pyridine-2-carboxylic acid (2-methylamino-ethyl)-amide] | 925 nM
7 | CNC(=O)c1cc(Oc2ccc(CNC(=O)Nc3ccc(Cl)c(C)c3)cc2)ccn1 [compound 74, 4-{4-[3-(4-Chloro-3-methyl-phenyl)-ureidomethyl]-phenoxy}-pyridine-2-carboxylic acid methylamide] | 175 nM
8 | CNC(=O)c1cc(Oc2ccc(CNC(=O)Nc3cccc(NS(C)(=O)=O)c3)cc2C)ccn1 [compound 167, 4-{4-[3-(3-Methanesulfonylamino-phenyl)-ureidomethyl]-2-methyl-phenoxy}-pyridine-2-carboxylic acid methylamide] | 1500 nM
9 | CNC(=O)c1cc(Oc2ccc(CNC(=O)Nc3cccc(S(=O)(=O)NC(C)C)c3)cc2)ccn1 [compound 158, 4-{4-[3-(3-Isopropylsulfamoyl-phenyl)-ureidomethyl]-phenoxy}-pyridine-2-carboxylic acid methylamide] | 100000 nM
10 | CNC(=O)c1cc(Oc2ccc(C(C)NC(=O)Nc3ccc(Cl)c(Cl)c3)cc2)ccn1 (stereo not drawn) [compound 71, 4-(4-{1-[3-(3,4-Dichloro-phenyl)-ureido]-ethyl}-phenoxy)-pyridine-2-carboxylic acid methylamide] | 1800 nM

Other lines, results leading:

Row | IC50 | Structure (SMILES)
11 | 14 nM | CNC(=O)c1cc(Oc2ccc(CNC(=O)Nc3cc(C(F)(F)F)ccc3-n3cncn3)cc2C)ccn1 [compound 202, 4-{2-Methyl-4-[3-(2-[1,2,4]triazol-1-yl-5-trifluoromethyl-phenyl)-ureidomethyl]-phenoxy}-pyridine-2-carboxylic acid methylamide]
12 | 8800 nM | CNC(=O)c1cc(Oc2ccc(CNC(=O)Nc3ccc(N4CCOCC4=O)c(Cl)c3)cc2)ccn1 [compound 225, 4-(4-{3-[3-Chloro-4-(3-oxo-morpholin-4-yl)-phenyl]-ureidomethyl}-phenoxy)-pyridine-2-carboxylic acid methylamide]
13 | 27 nM | CNC(=O)c1cc(Oc2ccc(CNC(=O)Nc3cc(C(F)(F)F)ccc3-n3cncn3)cc2F)ccn1 [compound 235, 4-{2-Fluoro-4-[3-(2-[1,2,4]triazol-1-yl-5-trifluoromethyl-phenyl)-ureidomethyl]-phenoxy}-pyridine-2-carboxylic acid methylamide]
14 | 330 nM | CNC(=O)c1cc(Oc2ccc(CNC(=O)Nc3cc(C)c(Cl)cc3NC(C)=O)cc2C)ccn1 [compound 186, 4-{4-[3-(2-Acetylamino-4-chloro-5-methyl-phenyl)-ureidomethyl]-2-methyl-phenoxy}-pyridine-2-carboxylic acid methylamide]
15 | 19 nM | CNC(=O)c1cc(Oc2ccc(CNC(=O)Nc3cc(C(F)(F)F)ccc3-n3ccnn3)cc2C)ccn1 [compound 203, 4-{2-Methyl-4-[3-(2-[1,2,3]triazol-1-yl-5-trifluoromethyl-phenyl)-ureidomethyl]-phenoxy}-pyridine-2-carboxylic acid methylamide]
16 | 45 nM | CNC(=O)c1cc(Oc2ccc(CNC(=O)Nc3cc(C(F)(F)F)ccc3CNC(C)=O)cc2C)ccn1 [compound 214, 4-(4-{3-[2-(Acetylamino-methyl)-5-trifluoromethyl-phenyl]-ureidomethyl}-2-methyl-phenoxy)-pyridine-2-carboxylic acid methylamide]
17 | 710 nM | CNC(=O)c1cc(Oc2ccc(CNC(=O)Nc3ccc(NC(C)=O)c(C(F)(F)F)c3)cc2)ccn1 [compound 241, 4-{4-[3-(4-Acetylamino-3-trifluoromethyl-phenyl)-ureidomethyl]-phenoxy}-pyridine-2-carboxylic acid methylamide]
18 | 7500 nM | CNC(=O)c1cc(Oc2ccc(CNC(=O)Nc3ccccc3CO)cc2C)ccn1 [compound 198, 4-{4-[3-(2-Hydroxymethyl-phenyl)-ureidomethyl]-2-methyl-phenoxy}-pyridine-2-carboxylic acid methylamide]
19 | 41 nM | CNC(=O)c1cc(Oc2ccc(CNC(=O)Nc3cc(C(F)(F)F)ccc3-n3cncn3)cc2)ccn1 [compound 201, 4-{4-[3-(2-[1,2,4]Triazol-1-yl-5-trifluoromethyl-phenyl)-ureidomethyl]-phenoxy}-pyridine-2-carboxylic acid methylamide]
20 | 31 nM | CNC(=O)c1cc(Oc2ccc(CNC(=O)Nc3cc(C(F)(F)F)ccc3-n3ccnn3)cc2)ccn1 [compound 206, 4-{4-[3-(2-[1,2,3]Triazol-1-yl-5-trifluoromethyl-phenyl)-ureidomethyl]-phenoxy}-pyridine-2-carboxylic acid methylamide]
21 | 1100 nM | CNC(=O)c1cc(Oc2ccc(CNC(=O)N3C(=O)Cc4ccc(C(F)(F)F)cc43)cc2)ccn1 [compound 205, 2-Oxo-6-trifluoromethyl-2,3-dihydro-indole-1-carboxylic acid 4-(2-methylcarbamoyl-pyridin-4-yloxy)-benzylamide]
22 | 2900 nM | CNC(=O)c1cc(Oc2ccc(CNC(=O)Nc3cc(C(F)(F)F)ccc3-n3ccnc3)cc2C)ccn1 [compound 240, 4-{4-[3-(2-Imidazol-1-yl-5-trifluoromethyl-phenyl)-ureidomethyl]-2-methyl-phenoxy}-pyridine-2-carboxylic acid methylamide]
23 | 985 nM | CNC(=O)c1cc(Oc2ccc(CNC(=O)Nc3cc(C(F)(F)F)ccc3CC(N)=O)cc2)ccn1 [compound 209, 4-{4-[3-(2-Carbamoylmethyl-5-trifluoromethyl-phenyl)-ureidomethyl]-phenoxy}-pyridine-2-carboxylic acid methylamide]
24 | 38 nM | CNC(=O)c1cc(Oc2ccc(CNC(=O)Nc3cc(C(F)(F)F)ccc3O)cc2C)ccn1 [compound 204, 4-{4-[3-(2-Hydroxy-5-trifluoromethyl-phenyl)-ureidomethyl]-2-methyl-phenoxy}-pyridine-2-carboxylic acid methylamide]
